The values below come from ChEMBL document CHEMBL3580624 (J Nat Prod, 2015).

For one assay, the species on record is Bos taurus. Put plainly: Inhibition of bovine trypsin at 25 uM pre-incubated for 15 mins before Bz-Arg-AMC-HCl substrate addition and further incubated for 1 hr by fluorimetry.
The target in assay [1] is Chymotrypsinogen A (Bos taurus) (UniProt P00766). Put plainly: Inhibition of bovine alpha-chymotrypsin at 75 uM pre-incubated for 15 mins before Ala-Ala-Phe-AMC substrate addition and further incubated for 1 hr by fluorimetry.
A further assay has as its target T1, Prolyl endopeptidase (Homo sapiens, UniProt P48147).
T1 sequence (P48147 whole entry): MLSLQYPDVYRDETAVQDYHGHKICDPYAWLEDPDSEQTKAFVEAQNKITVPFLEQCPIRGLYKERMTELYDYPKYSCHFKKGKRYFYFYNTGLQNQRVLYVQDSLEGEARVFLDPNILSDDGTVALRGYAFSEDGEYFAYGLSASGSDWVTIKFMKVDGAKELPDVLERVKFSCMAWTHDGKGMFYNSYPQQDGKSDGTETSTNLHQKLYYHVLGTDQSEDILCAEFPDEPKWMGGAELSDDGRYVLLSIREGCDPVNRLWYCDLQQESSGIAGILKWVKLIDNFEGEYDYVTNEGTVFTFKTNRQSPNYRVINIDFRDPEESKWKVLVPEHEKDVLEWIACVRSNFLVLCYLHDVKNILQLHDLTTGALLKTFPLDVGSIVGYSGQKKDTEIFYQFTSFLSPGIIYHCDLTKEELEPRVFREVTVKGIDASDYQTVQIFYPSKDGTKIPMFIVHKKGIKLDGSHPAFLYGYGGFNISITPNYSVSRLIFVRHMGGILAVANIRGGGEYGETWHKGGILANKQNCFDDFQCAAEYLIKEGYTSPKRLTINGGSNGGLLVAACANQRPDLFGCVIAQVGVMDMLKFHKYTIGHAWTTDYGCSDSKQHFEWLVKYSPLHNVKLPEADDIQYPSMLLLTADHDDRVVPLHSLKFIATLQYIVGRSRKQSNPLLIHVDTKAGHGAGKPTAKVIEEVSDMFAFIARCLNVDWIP
Description: Inhibition of human recombinant POP pre-incubated for 15 mins before Z-Gly-Pro-AMC substrate addition and further incubated for 1 hr by fluorimetry.

Active and inactive are the calls of the source. No cut-off for these calls is given here.

Consider `CC[C@H](C)[C@@H]1NC(=O)[C@@H]2CCCN2C(=O)[C@H](CC(C)C)NC(=O)CNC(=O)[C@H](CC(N)=O)NC(=O)[C@H](CCCNC(=N)N)NC(=O)[C@H]([C@@H](C)O)NC(=O)[C@@H]2CSSC[C@@H]3NC(=O)[C@H]([C@@H](C)O)NC(=O)CNC(=O)CNC(=O)[C@H](C(C)C)NC(=O)[C@@H]4CSSC[C@H](NC(=O)[C@H]([C@@H](C)O)NC(=O)[C@H](CSSC[C@H](NC1=O)C(=O)NCC(=O)N[C@@H](CCC(=O)O)C(=O)N[C@@H](CO)C(=O)N4)NC(=O)CNC(=O)[C@@H]1CCCN1C(=O)[C@H]([C@@H](C)O)NC(=O)[C@H](CC(N)=O)NC3=O)C(=O)N[C@@H]([C@@H](C)O)C(=O)N[C@@H](Cc1c[nH]c3ccccc13)C(=O)N1CCC[C@H]1C(=O)N[C@@H](C(C)C)C(=O)N2` (stereo in doubt; form 2) [listing 1 of 2 here], for which the inhibition entry (in the assay filed under Bos taurus; in assay [1]) was “inactive” in each case.

In the case of `CC[C@H](C)[C@@H]1NC(=O)[C@@H]2CCCN2C(=O)[C@H](CC(C)C)NC(=O)CNC(=O)[C@H](CC(N)=O)NC(=O)[C@H](CCCNC(=N)N)NC(=O)[C@H]([C@@H](C)O)NC(=O)[C@@H]2CSSC[C@@H]3NC(=O)[C@H]([C@@H](C)O)NC(=O)CNC(=O)CNC(=O)[C@H](C(C)C)NC(=O)[C@@H]4CSSC[C@H](NC(=O)[C@H]([C@@H](C)O)NC(=O)[C@H](CSSC[C@H](NC1=O)C(=O)NCC(=O)N[C@@H](CCC(=O)O)C(=O)N[C@@H](CO)C(=O)N4)NC(=O)CNC(=O)[C@@H]1CCCN1C(=O)[C@H]([C@@H](C)O)NC(=O)[C@H](CC(N)=O)NC3=O)C(=O)N[C@@H]([C@@H](C)O)C(=O)N[C@@H](Cc1c[nH]c3ccccc13)C(=O)N1CCC[C@H]1C(=O)N[C@@H](C(C)C)C(=O)N2` (stereo in doubt; form 2) [listing 2 of 2 here], the half-maximal inhibitory concentration (IC50) (usually the concentration that inhibits the measured activity by half) at Prolyl endopeptidase is 8.6 µM.

Take `CC[C@H](C)[C@@H]1NC(=O)[C@@H]2CCCN2C(=O)[C@H](CC(C)C)NC(=O)CNC(=O)[C@H](CC(N)=O)NC(=O)[C@H](CCCNC(=N)N)NC(=O)[C@H]([C@@H](C)O)NC(=O)[C@@H]2CSSC[C@@H]3NC(=O)[C@H]([C@@H](C)O)NC(=O)CNC(=O)CNC(=O)[C@H](C(C)C)NC(=O)[C@@H]4CSSC[C@H](NC(=O)[C@H]([C@@H](C)O)NC(=O)[C@H](CSSC[C@H](NC1=O)C(=O)NCC(=O)N[C@@H](CCC(=O)O)C(=O)N[C@@H](CO)C(=O)N4)NC(=O)CNC(=O)[C@@H]1CCCN1C(=O)[C@H]([C@@H](C)O)NC(=O)[C@H](CC(N)=O)NC3=O)C(=O)N[C@@H]([C@@H](C)O)C(=O)N[C@@H](Cc1c[nH]c3ccccc13)C(=O)N1CCC[C@H]1C(=O)N[C@@H](C(C)C)C(=O)N2` (stereo in doubt; form 1): at Prolyl endopeptidase, the half-maximal inhibitory concentration (IC50) is 9.57 µM.
